Assay results taken from the NIST ThermoML archive (doi:10.1016/j.fluid.2006.11.004).
± gives the expanded uncertainty stated by the source.

Assay: xn = mol fraction of the nth substance listed
Conditions: 273.15 K, 111 kPa, Fluid (supercritical or subcritical phases), Flux Response Technology (based on capillary viscometry)

O=C=O [carbon dioxide] + FC(F)(Cl)Cl
excess molar volume (x1 = 1): 0 ± 1e-07 m3/mol

FC(F)(Cl)Cl [dichlorodifluoromethane] + O=C=O
excess molar volume (x2 = 0): 0 ± 1e-07 m3/mol
excess molar volume (x2 = 0.0001): 0 ± 1e-07 m3/mol
excess molar volume (x2 = 0.113): 3.11e-05 ± 4.4e-06 m3/mol
excess molar volume (x2 = 0.236): 4.65e-05 ± 6.5e-06 m3/mol
excess molar volume (x2 = 0.362): 5.16e-05 ± 7.2e-06 m3/mol
excess molar volume (x2 = 0.48): 5.54e-05 ± 7.8e-06 m3/mol
excess molar volume (x2 = 0.482): 4.91e-05 ± 6.9e-06 m3/mol
excess molar volume (x2 = 0.56): 5.6e-05 ± 7.8e-06 m3/mol
excess molar volume (x2 = 0.561): 5.24e-05 ± 7.3e-06 m3/mol
excess molar volume (x2 = 0.6): 5.03e-05 ± 7e-06 m3/mol
excess molar volume (x2 = 0.715): 5.03e-05 ± 7e-06 m3/mol
excess molar volume (x2 = 0.833): 3.21e-05 ± 4.5e-06 m3/mol
